According to patent US12396981B2 (priority 2023, dated 2025):
“And” between values parts separate entries of the source, which are not always exact repeats. Identical values can stand only once.

Columns and labels:
[1] = test system: NMDA receptors; conditions: Moliner 2023; cited from earlier work
[2] = molecular target: Tropomyosin receptor kinase B (TrkB) (Homo sapiens, UniProt Q16620); conditions: Moliner 2023; cited from earlier work
[3] = cited from earlier work
[4] = molecular target: 5-HT1D (Homo sapiens, UniProt P28221); conditions: Halberstadt & Geyer 2011; cited from earlier work
Sequence of 5-HT1D (P28221 whole entry, species assumed): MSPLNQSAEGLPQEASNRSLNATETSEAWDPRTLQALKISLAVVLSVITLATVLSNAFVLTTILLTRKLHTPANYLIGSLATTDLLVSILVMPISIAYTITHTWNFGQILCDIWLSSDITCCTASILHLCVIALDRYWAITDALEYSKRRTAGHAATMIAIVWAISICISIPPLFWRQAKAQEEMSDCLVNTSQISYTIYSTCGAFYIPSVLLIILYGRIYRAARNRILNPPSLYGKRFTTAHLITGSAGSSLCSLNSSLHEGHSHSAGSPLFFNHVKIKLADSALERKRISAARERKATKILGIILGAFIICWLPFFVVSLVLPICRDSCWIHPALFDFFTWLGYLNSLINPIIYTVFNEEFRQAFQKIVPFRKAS

[5] = molecular target: 5-HT1B (Homo sapiens, UniProt P28222); conditions: Halberstadt & Geyer 2011; cited from earlier work
Sequence of 5-HT1B (P28222 whole entry, species assumed): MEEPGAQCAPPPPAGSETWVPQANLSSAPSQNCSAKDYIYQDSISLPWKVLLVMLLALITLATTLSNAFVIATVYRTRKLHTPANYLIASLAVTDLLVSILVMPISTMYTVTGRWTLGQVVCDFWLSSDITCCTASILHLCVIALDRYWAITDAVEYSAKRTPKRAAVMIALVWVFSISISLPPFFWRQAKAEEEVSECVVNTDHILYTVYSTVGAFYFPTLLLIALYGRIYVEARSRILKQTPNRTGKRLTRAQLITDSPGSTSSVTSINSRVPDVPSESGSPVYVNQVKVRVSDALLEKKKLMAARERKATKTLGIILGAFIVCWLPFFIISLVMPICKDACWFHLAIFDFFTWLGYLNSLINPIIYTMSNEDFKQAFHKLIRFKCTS

[6] = molecular target: sigma-1 receptor (Homo sapiens, UniProt Q99720); conditions: Fontanilla 2009; Ray 2010; cited from earlier work
Sequence of sigma-1 receptor (Q99720 whole entry, species assumed): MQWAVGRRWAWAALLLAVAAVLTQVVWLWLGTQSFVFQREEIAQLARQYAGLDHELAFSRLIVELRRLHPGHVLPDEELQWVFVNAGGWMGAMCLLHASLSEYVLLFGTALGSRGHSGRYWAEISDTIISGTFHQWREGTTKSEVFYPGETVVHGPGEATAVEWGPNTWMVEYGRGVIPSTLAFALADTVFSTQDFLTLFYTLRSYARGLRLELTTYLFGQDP

[7] = Challenging Experience Questionnaire (CEQ) after inhaling DMT according to a disclosed method; format: in vivo, human
From the text: (§1) The study included nine participants with the following demographic characteristics:
(§2) For the MEQ and CEQ higher scores indicate a more mystical experience and a more challenging experience, respectively.

[8] = Mystical Experience Questionnaire (MEQ30) after inhaling DMT according to a disclosed method; format: in vivo, human
From the text: as §1, §2

[9] = molecular target: 5-HT2A (Homo sapiens, UniProt P28223); conditions: Halberstadt & Geyer 2011; cited from earlier work
Sequence of 5-HT2A (P28223 whole entry): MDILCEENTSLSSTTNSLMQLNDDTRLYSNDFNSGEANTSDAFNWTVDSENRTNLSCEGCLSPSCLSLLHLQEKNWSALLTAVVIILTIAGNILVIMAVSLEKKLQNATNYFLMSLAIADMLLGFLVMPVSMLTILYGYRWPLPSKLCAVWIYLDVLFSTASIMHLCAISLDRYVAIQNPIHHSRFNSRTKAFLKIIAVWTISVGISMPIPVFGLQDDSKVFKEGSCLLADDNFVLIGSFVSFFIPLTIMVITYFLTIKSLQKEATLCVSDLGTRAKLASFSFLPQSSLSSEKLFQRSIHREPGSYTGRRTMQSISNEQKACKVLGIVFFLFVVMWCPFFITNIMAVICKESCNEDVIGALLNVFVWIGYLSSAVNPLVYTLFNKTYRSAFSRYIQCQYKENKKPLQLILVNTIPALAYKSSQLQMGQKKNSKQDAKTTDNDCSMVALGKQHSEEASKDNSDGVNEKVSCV

[10] = molecular target: 5-HT1E (Homo sapiens, UniProt P28566); conditions: Halberstadt & Geyer 2011; cited from earlier work
Sequence of 5-HT1E (P28566 whole entry, species assumed): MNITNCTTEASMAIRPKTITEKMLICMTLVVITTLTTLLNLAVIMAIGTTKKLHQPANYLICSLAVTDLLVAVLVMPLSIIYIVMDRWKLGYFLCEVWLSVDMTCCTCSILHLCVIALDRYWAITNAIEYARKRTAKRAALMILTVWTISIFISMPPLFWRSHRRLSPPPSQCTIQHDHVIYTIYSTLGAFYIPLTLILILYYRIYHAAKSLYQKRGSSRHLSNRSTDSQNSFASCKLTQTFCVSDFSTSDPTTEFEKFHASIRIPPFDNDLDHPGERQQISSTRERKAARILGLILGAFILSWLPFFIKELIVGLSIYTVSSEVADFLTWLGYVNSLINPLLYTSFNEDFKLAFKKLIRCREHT

[11] = molecular target: 5-HT7 (Homo sapiens, UniProt P34969); conditions: Halberstadt & Geyer 2011; cited from earlier work
Sequence of 5-HT7 (P34969 whole entry, species assumed): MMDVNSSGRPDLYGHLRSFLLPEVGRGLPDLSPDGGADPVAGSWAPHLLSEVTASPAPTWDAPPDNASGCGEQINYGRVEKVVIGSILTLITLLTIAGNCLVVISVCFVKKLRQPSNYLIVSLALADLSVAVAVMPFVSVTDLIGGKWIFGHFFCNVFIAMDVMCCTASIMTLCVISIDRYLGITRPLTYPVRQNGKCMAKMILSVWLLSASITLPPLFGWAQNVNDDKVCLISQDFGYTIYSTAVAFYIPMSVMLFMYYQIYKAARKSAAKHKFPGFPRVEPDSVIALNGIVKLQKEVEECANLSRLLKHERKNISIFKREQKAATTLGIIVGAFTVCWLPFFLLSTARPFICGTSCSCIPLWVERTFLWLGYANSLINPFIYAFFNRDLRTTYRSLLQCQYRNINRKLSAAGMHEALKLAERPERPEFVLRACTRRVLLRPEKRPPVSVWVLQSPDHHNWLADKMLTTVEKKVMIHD

[12] = cited from earlier work; remark: listed apart in the source
[13] = molecular target: 5-HT5A (Homo sapiens, UniProt P47898); conditions: Halberstadt & Geyer 2011; cited from earlier work
Sequence of 5-HT5A (P47898 whole entry, species assumed): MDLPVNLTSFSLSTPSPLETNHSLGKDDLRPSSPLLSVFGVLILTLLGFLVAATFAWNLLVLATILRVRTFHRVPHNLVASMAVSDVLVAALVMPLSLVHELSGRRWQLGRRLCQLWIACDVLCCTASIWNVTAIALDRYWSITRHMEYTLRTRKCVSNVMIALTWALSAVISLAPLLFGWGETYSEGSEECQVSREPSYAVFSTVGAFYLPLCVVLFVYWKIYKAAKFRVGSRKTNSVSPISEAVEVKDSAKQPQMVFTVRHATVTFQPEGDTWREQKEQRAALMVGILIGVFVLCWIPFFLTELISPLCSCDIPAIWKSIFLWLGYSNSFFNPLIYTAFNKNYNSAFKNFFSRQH

[14] = molecular target: 5-HT6 (Homo sapiens, UniProt P50406); conditions: Halberstadt & Geyer 2011; cited from earlier work
Sequence of 5-HT6 (P50406 whole entry, species assumed): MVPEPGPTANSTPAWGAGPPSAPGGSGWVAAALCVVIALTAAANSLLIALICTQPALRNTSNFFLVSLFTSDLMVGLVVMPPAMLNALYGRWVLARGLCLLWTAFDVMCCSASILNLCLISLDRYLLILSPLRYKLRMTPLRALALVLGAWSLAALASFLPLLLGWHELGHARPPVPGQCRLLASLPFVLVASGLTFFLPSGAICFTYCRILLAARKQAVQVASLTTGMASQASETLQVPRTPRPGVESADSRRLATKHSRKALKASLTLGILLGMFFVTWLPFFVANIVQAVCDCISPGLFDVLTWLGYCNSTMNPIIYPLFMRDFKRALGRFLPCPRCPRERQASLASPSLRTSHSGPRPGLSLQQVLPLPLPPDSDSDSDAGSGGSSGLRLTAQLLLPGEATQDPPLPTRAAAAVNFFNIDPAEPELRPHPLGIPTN

[15] = comparable to psilocin; Jones 2024; cited from earlier work
[16] = mean over the nine participants
[17] = per participant, r8-r16 = participants 1-9
[18] = MEQ30 item score, c1-c9 = participants 1-9, after inhaled DMT per disclosed method
[19] = mean item score per participant, r7-r15 = participants 1-9
[20] = total per participant, r7-r15 = participants 1-9

Sequence of Tropomyosin receptor kinase B (TrkB) (Q16620 32-822, species assumed): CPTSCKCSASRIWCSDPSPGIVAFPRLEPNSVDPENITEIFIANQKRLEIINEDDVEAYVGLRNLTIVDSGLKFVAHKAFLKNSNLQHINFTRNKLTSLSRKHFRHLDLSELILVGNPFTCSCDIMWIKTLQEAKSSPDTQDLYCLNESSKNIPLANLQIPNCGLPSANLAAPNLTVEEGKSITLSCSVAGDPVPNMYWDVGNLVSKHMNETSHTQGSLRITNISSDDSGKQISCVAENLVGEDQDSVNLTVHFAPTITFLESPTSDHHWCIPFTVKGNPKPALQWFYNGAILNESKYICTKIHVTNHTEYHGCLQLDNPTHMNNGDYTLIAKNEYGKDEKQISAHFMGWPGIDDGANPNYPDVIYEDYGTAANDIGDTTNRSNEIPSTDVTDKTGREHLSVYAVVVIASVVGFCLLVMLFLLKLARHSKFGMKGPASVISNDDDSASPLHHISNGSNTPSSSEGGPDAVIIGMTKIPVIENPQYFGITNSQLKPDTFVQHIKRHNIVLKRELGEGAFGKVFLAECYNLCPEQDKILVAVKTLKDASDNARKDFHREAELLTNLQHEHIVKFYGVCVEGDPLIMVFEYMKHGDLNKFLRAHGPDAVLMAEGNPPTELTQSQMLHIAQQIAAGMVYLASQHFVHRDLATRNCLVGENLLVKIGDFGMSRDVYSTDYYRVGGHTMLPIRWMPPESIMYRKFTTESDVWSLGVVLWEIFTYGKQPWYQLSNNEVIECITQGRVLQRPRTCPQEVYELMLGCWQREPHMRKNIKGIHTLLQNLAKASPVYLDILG

## N[C@@]1(c2ccccc2Cl)CCC[C@@H](O)C1=O [2R,6R-hydroxynorketamine]
[1]
  affinity to NMDA receptors: low affinity
[2]
  binding to TrkB: binds to TrkB

## O=C1Nc2ccc(Cl)cc2C(c2ccccc2Cl)=NC1O (racemic) [Lorazepam, ±7-chloro-5-(2-chlorophenyl)-1,3-dihydro-3-hydroxy-2H-1,4-benzodiazepin-2-one]
[3]; after oral administration
  time of peak plasma concentrations (Tmax): about 2 hours
[3]; human plasma
  half-life in human plasma: about 12 hours

## CNC1(c2ccccc2Cl)CCCCC1=O (stereo not shown) [Ketamine]
[2]
  binding to TrkB: does directly bind to TrkB

## CN(C)CCc1c[nH]c2ccccc12 [DMT, N,N-dimethyltryptamine]
[4]
  Ki: 0.039 µM
[5]
  Ki: 0.129 µM
[6]
  binding to the sigma-1 receptor: binds to the sigma-1 receptor
[7]; Fear, Physical Distress, Insanity, Isolation, Death, and Paranoia subscales
  mean participant score, of the maximum score: less than 6%
[7]; each CEQ subscale
  mean participant score on each of the CEQ subscales, of the maximum possible score: ≤ 10%
[7]; [16]
  Death, Mean (CEQ dimension): 0.44
  Fear, Mean (CEQ dimension): 1.889
  Grief, Mean (CEQ dimension): 3.11
  Insanity, Mean (CEQ dimension): 0.89
  Isolation, Mean (CEQ dimension): 0.78
  Paranoia, Mean (CEQ dimension): 0.44
  Physical Distress, Mean (CEQ dimension): 0.89
[7]; [17]
  Death (CEQ dimension score): 1 (2×) and 2 and 0 (6×)
  Fear (CEQ dimension score): 0 (5×) and 5 (3×) and 2
  Grief (CEQ dimension score): 1 and 6 (2×) and 0 (4×) and 12 and 3
  Insanity (CEQ dimension score): 0 (5×) and 3 and 2 (2×) and 1
  Isolation (CEQ dimension score): 0 (7×) and 3 and 4
  Paranoia (CEQ dimension score): 0 (7×) and 2 (2×)
  Physical Distress (CEQ dimension score): 1 (3×) and 5 and 0 (5×)
[2]
  binding to TrkB: do not bind TrkB directly
[8]; [18]
  2.1 Experience of amazement.: 3 and 5 and 4
  2.4 Experience of ecstasy.: 3 and 5 and 4
  2.5 Sense of awe or awesomeness.: 3 and 5 and 4
  2.6 Feelings of joy.: 3 and 4 and 5
  4.2 Feeling that you could not do justice to your experience by describing it in words.: 4 and 3 and 5
  4.3 Feeling that it would be difficult to communicate your own experience to others who have not had similar experiences.: 3 and 4 and 5
[8]; [19]
  Ineffability, mean participant score (MEQ30 dimension): 5.00 (4×) and 4.00 (3×) and 3.00 (2×)
  Mysticism, mean participant score (MEQ30 dimension): 2.53 and 3.33 and 5.00 and 3.87 and 4.00 (2×) and 4.73 and 1.33 and 3.60
  Positive Mood, mean participant score (MEQ30 dimension): 4.33 (2×) and 3.50 (2×) and 4.83 and 4.50 and 2.67 (2×) and 5.00
  Transcendence, mean participant score (MEQ30 dimension): 2.83 and 5.00 (2×) and 3.83 and 4.00 and 1.50 and 2.67 and 3.50
[8]; [16]
  Ineffability, Mean (MEQ30 dimension): 4.22
  Mysticism, Mean (MEQ30 dimension): 3.60
  Positive Mood, Mean (MEQ30 dimension): 3.93
  Transcendence, Mean (MEQ30 dimension): 3.35
[8]; nine participants
  participants with a score >= 60% of the maximum score on the Ineffability subscale: 100%
  participants with a score >= 60% of the maximum score on the Mystical and Positive Mood subscales: 78%
  participants with a score >= 60% of the maximum score on the Transcendence of Time and Space subscale: 55%
  participants with a score >= 75% of the maximum score on the Ineffability subscale: 78%
  participants with a score >= 75% of the maximum score on the Transcendence of Time and Space subscale: 44%
  participants with a score >= 75% of the maximum scores on the Mystical and Positive Mood subscales: 55%
  participants with a score of greater than or equal to 60% on at least one MEQ30 subscale: all participants
[8]; [20]
  Ineffability, total score (MEQ30 subscale): 15 (4×) and 12 (3×) and 9 (2×)
  Mysticism, total score (MEQ30 subscale): 38 and 50 and 75 and 58 and 60 (2×) and 71 and 20 and 54
  Positive Mood, total score (MEQ30 subscale): 26 (2×) and 21 (2×) and 29 and 27 and 16 (2×) and 30
  Transcendence, total score (MEQ30 subscale): 17 and 11 and 30 (2×) and 23 and 24 and 9 and 16 and 21
[9]
  Ki: 0.127 µM
[10]
  Ki: 0.517 µM
[11]
  Ki: 0.206 µM
[12]; blood
  half life from the blood: less than 16 minutes
[12]; brain
  half life from the brain: less than six
[13]
  Ki: 2.14 µM
[14]
  Ki: 0.464 µM

## CN(C)CCc1c[nH]c2cccc(O)c12 [Psilocin, 4-hydroxy-N,N-dimethyltryptamine]
[4]
  Ki: 0.0364 µM
[5]
  Ki: 0.22 µM
[6]
  binding to the sigma-1 receptor: no affinity

## CC(=O)Oc1cccc2[nH]cc(CCN(C)C)c12 [Psilacetin, 4-acetoxy-N,N-dimethyltryptamine]
[15]
  duration of subjective effects: 4 to 8 h
